From US10105357B2, “Indication of antibiotic drugs for preparation of cancer inhibition pharmaceutical composition” (LAUNX BIOMEDICAL CO., LTD., priority 2014, dated 2018)
Where a name gives a salt, the structure may show the parent alone. Read-outs that look alike come from different tables or passages of the source.

Legend:
Type in all cases: cell-based, human
[1] = system: AGS (Gastric Adenocarcinoma); assay: Cell viability analysis, gastric cancer AGS; conditions: 72 h; for viability at 10 µM: Homo sapiens
[2] = system: PC3 (p53−) (Prostate Adenocarcinoma); assay: Cell viability analysis, prostate cancer PC3; conditions: 72 h; for viability at 10 µM: Homo sapiens
[3] = system: cancer cell lines; assay: Cell viability analysis (WST-1) on cancer cell lines; conditions: drug 10 μM, 72 hours, WST-1; Table 3
[4] = system: HI650 (Lung Adenocarcinoma); assay: Cell viability analysis, lung cancer HI650; conditions: for viability at 10 µM: Homo sapiens, NCI-H1650, 72 h
[5] = system: HeLa (Cervix Adenocarcinoma); assay: Cell viability analysis, cervical cancer HeLa; conditions: 72 h; for viability at 10 µM: Homo sapiens, HeLa
[6] = system: A375 (Amelanotic Melanoma); assay: Cell viability analysis, skin cancer A375; conditions: for viability at 10 µM: Homo sapiens, A-375, 72 h
[7] = system: LoVo (Colorectal Adenocarcinoma); assay: Cell viability analysis, colon cancer LoVo; conditions: 72 h; for viability at 10 µM: Homo sapiens, LoVo, read-out: cell viability (survival rate), LoVo, drug 10 μM, 72 hours, WST-1, OD450 nm
[8] = system: MKN-45 (Gastric Adenocarcinoma); assay: Cell viability analysis, gastric cancer MKN-45; conditions: for viability at 10 µM: Homo sapiens, MKN-45, 72 h
[9] = system: MCF7 (Mammary Gland, Adenocarcinoma); assay: Cell viability analysis, breast cancer MCF7; conditions: for viability at 10 µM: Homo sapiens, MCF7, 72 h
[10] = system: A549 (Lung Adenocarcinoma); assay: Cell viability analysis, lung cancer A549; conditions: for viability at 10 µM: Homo sapiens, A549, 72 h
[11] = system: HepG2 (Hepatocellular Carcinoma); assay: Cell viability analysis, hepatic cancer HepG2; conditions: for viability at 10 µM: Homo sapiens, HepG2, 72 h
[12] = system: HL-60 (Acute Promyelocytic Leukemia); assay: Cell viability analysis, leukemia HL-60; conditions: for viability at 10 µM: Homo sapiens, HL-60, 72 h
[13] = system: TSGH-8301 (Urinary Bladder Carcinoma); assay: Cell viability analysis, bladder cancer TSGH-8301; conditions: 72 h; for viability at 10 µM: Homo sapiens
[14] = read-out: cell viability (survival rate), AGS, drug 10 μM, 72 hours, WST-1, OD450 nm
[15] = read-out: cell viability (survival rate), PC3, drug 10 μM, 72 hours, WST-1, OD450 nm
[16] = read-out: cell viability (survival rate), H1650, drug 10 μM, 72 hours, WST-1, OD450 nm
[17] = read-out: cell viability (survival rate), HeLa, drug 10 μM, 72 hours, WST-1, OD450 nm
[18] = read-out: cell viability (survival rate), A375, drug 10 μM, 72 hours, WST-1, OD450 nm
[19] = read-out: cell viability (survival rate), MKN-45, drug 10 μM, 72 hours, WST-1, OD450 nm
[20] = read-out: cell viability (survival rate), MCF7, drug 10 μM, 72 hours, WST-1, OD450 nm
[21] = read-out: cell viability (survival rate), A549, drug 10 μM, 72 hours, WST-1, OD450 nm
[22] = read-out: cell viability (survival rate), HepG2, drug 10 μM, 72 hours, WST-1, OD450 nm
[23] = read-out: cell viability (survival rate), HL-60, drug 10 μM, 72 hours, WST-1, OD450 nm
[24] = read-out: cell viability (survival rate), TSGH, drug 10 μM, 72 hours, WST-1, OD450 nm
[25] = drug 10 μM, 72 hours, WST-1, OD450 nm, read-out: cell viability (survival rate), AGS
[26] = drug 10 μM, 72 hours, WST-1, OD450 nm, read-out: cell viability (survival rate), PC3
[27] = drug 10 μM, 72 hours, WST-1, OD450 nm, read-out: cell viability (survival rate), H1650
[28] = drug 10 μM, 72 hours, WST-1, OD450 nm, read-out: cell viability (survival rate), HeLa
[29] = drug 10 μM, 72 hours, WST-1, OD450 nm, read-out: cell viability (survival rate), A375
[30] = drug 10 μM, 72 hours, WST-1, OD450 nm, read-out: cell viability (survival rate), MKN-45
[31] = drug 10 μM, 72 hours, WST-1, OD450 nm, read-out: cell viability (survival rate), MCF7
[32] = drug 10 μM, 72 hours, WST-1, OD450 nm, read-out: cell viability (survival rate), A549
[33] = drug 10 μM, 72 hours, WST-1, OD450 nm, read-out: cell viability (survival rate), HepG2
[34] = drug 10 μM, 72 hours, WST-1, OD450 nm, read-out: cell viability (survival rate), HL-60
[35] = drug 10 μM, 72 hours, WST-1, OD450 nm, read-out: cell viability (survival rate), TSGH

Row | Compound | viability at 10 µM [1, 14] [%] | viability at 10 µM [2, 15] [%] | inhibition effect on different cancer cell lines [3] | viability at 10 µM [4, 16] [%] | viability at 10 µM [5, 17] [%] | viability at 10 µM [6, 18] [%] | viability at 10 µM [7] [%] | viability at 10 µM [8, 19] [%] | viability at 10 µM [9, 20] [%] | viability at 10 µM [10, 21] [%] | viability at 10 µM [11, 22] [%] | viability at 10 µM [12, 23] [%] | viability at 10 µM [13, 24] [%] | viability at 10 µM [1, 25] [%] | viability at 10 µM [2, 26] [%] | viability at 10 µM [4, 27] [%] | viability at 10 µM [5, 28] [%] | viability at 10 µM [6, 29] [%] | viability at 10 µM [8, 30] [%] | viability at 10 µM [9, 31] [%] | further results
1 | Cc1cccc(C)c1OCC(=O)N[C@@H](Cc1ccccc1)[C@@H](O)C[C@H](Cc1ccccc1)NC(=O)[C@H](C(C)C)N1CCCNC1=O [Lopinavir (ABT-378), Lopinavir] | 55.4 | 68 | significant inhibition effect | 53.1 | 116 | 83.1 | 85.1 | 74.2 | 77.9 | 63.8 | 93.1 | 92.4 | 82.2 |  |  |  |  |  |  |  | 
2 | CC(=O)N[C@H]1[C@H]([C@H](O)[C@H](O)CO)OC(C(=O)O)=C[C@@H]1N=C(N)N [Zanamivir (Relenza), Zanamivir] |  |  | significant inhibition effect |  |  |  | 77.3 |  |  |  |  |  |  | 75.1 | 106 | 62.7 | 71.8 | 51.5 | 85.8 | 69.6 | viability at 10 µM [10, 32]: 93%; viability at 10 µM [11, 33]: 110%; viability at 10 µM [12, 34]: 146%; viability at 10 µM [13, 35]: 88.5%
3 | CC(=O)N1CCN(c2ccc(OCC3COC(Cn4ccnc4)(c4ccc(Cl)cc4Cl)O3)cc2)CC1 (centres unmarked) [Ketoconazole] | 65.7 | 80.1 | significant inhibition effect | 46.1 | 84.3 | 49.2 | 90.3 | 77 | 118 | 75.7 | 88.7 | 88.3 | 107 |  |  |  |  |  |  |  | 
4 | O=C(O)Cc1ccccc1Nc1c(Cl)cccc1Cl [Diclofenac Potassium] | 91.4 | 63.3 | significant inhibition effect | 43.9 | 76.1 | 51.5 | 85 | 40.5 | 76.3 | 81.7 | 107 | 96.3 | 122 |  |  |  |  |  |  |  | 
5 | C=C[C@]1(C)C[C@@H](OC(=O)CSC(C)(C)CNC(=O)[C@H](N)C(C)C)[C@]2(C)[C@H](C)CC[C@]3(CCC(=O)[C@H]32)[C@@H](C)[C@@H]1O [Valnemulin HCl] | 75.5 | 83.4 | significant inhibition effect | 78.8 | 117 | 57.1 | 73.6 | 91.4 | 66.7 | 62.2 | 126 | 93.3 | 66.9 |  |  |  |  |  |  |  | 
6 | Nc1ncnc2c1ncn2[C@@H]1O[C@H](CO)[C@@H](O)[C@@H]1O [Vidarabine (Vira-A), Vidarabine] | 104 | 70.6 | significant inhibition effect | 78.8 | 47.7 | 48.1 | 72.9 | 44.4 | 36.5 | 32.2 | 74.2 | 99 | 68.6 |  |  |  |  |  |  |  | 
7 | CO[C@H]1/C=C/O[C@@]2(C)Oc3c(C)c(O)c4c(O)c(c(/C=N/N5CCN(C)CC5)c(O)c4c3C2=O)NC(=O)/C(C)=C\C=C\[C@H](C)[C@H](O)[C@@H](C)[C@@H](O)[C@@H](C)[C@H](OC(C)=O)[C@@H]1C [Rifampin (Rifadin, Rimactane), Rifampin] |  |  | significant inhibition effect |  |  |  | 83.9 |  |  |  |  |  |  | 111 | 69.9 | 89.1 | 58.8 | 61.6 | 61.1 | 39.7 | viability at 10 µM [10, 32]: 45.2%; viability at 10 µM [11, 33]: 98.5%; viability at 10 µM [12, 34]: 105%; viability at 10 µM [13, 35]: 108%
8 | CC1(C)S[C@@H]2[C@H](NC(=O)[C@H](N)c3ccccc3)C(=O)N2[C@H]1C(=O)O [Ampicillin Trihydrate] |  |  | significant inhibition effect |  |  |  |  |  |  |  |  |  |  |  |  |  |  |  |  |  | cell viability (survival rate), AGS ([1]; human, 10 µM): 95.3; cell viability (survival rate), PC3 ([2]; human, 10 µM): 65.3; cell viability (survival rate), H1650 ([4]; human, 72 h, 10 µM): 63.6; cell viability (survival rate), HeLa ([5]; human, 10 µM): 59.3; cell viability (survival rate), A375 ([6]; human, 72 h, 10 µM): 53.7; cell viability (survival rate), LoVo ([7]; human, 10 µM): 78.4; cell viability (survival rate), MKN-45 ([8]; human, 72 h, 10 µM): 56.3; cell viability (survival rate), MCF7 ([9]; human, 72 h, 10 µM): 36.5; cell viability (survival rate), A549 ([10]; human, 72 h, 10 µM): 41.9; cell viability (survival rate), HepG2 ([11]; human, 72 h, 10 µM): 92.4; cell viability (survival rate), HL-60 ([12]; human, 72 h, 10 µM): 92.7; cell viability (survival rate), TSGH ([13]; human, 10 µM): 61.3
9 | CC(=O)O[C@]1(C(C)=O)CC[C@H]2[C@@H]3C[C@H](C)C4=CC(=O)CC[C@]4(C)[C@H]3CC[C@@]21C [Medroxyprogesterone acetate] |  |  | significant inhibition effect |  |  |  | 65.9 |  |  |  |  |  |  | 72.3 | 82 | 38.6 | 70.4 | 81 | 66.9 | 69.3 | viability at 10 µM [10, 32]: 60.5%; viability at 10 µM [11, 33]: 78.6%; viability at 10 µM [12, 34]: 51.7%; viability at 10 µM [13, 35]: 79.4%
10 | C[C@H]1[C@H](NC(=O)/C(=N\OC(C)(C)C(=O)O)c2csc(N)n2)C(=O)N1S(=O)(=O)O [Aztreonam (Azactam, Cayston), Aztreonam] | 40.9 | 55.2 | significant inhibition effect | 48.6 | 87.2 | 88.6 | 76.3 | 60.5 | 68.6 | 56.9 | 111 | 113 | 52.3 |  |  |  |  |  |  |  | 
11 | CC[C@H]1OC(=O)C[C@@H](O)[C@H](C)[C@@H](O[C@@H]2O[C@H](C)[C@@H](O)[C@H](N(C)C)[C@H]2O)[C@@H](CCN2C[C@H](C)C[C@H](C)C2)C[C@@H](C)C(=O)/C=C/C(C)=C/[C@@H]1CO[C@@H]1O[C@H](C)[C@@H](O)[C@@H](OC)[C@H]1OC [Tilmicosin] |  |  | significant inhibition effect |  |  |  | 83.8 |  |  |  |  |  |  | 102 | 81.5 | 72.7 | 67 | 54.7 | 52.1 | 39.1 | viability at 10 µM [10, 32]: 53.5%; viability at 10 µM [11, 33]: 92.1%; viability at 10 µM [12, 34]: 75%; viability at 10 µM [13, 35]: 56.5%
